Results from patent US12421206B2, “Aryl-n-aryl derivatives for treating a RNA virus infection” (ABIVAX, priority 2018, dated 2025).

Tested on: Chikungunya Virus (CHIKV) strain LR2006-OPY1 with GFP modification (CHIK 5'LR)
Test: microbe, parasite or virus in culture
Type: cell-based
Details: HEK-293T, infected HEK293T cells; for inhibition at 1 µM: compounds at 1 μM, MOI 0.1, 22 h, mean of 2 experiments, values above 100 lowered to 100, read-out: % CHIKV Inhibition Mean (n = 2); for IC50: second round of experiments, range stated for listed compounds, read-out: IC50 (CHIKV inhibition)
Experimental: The ability of the compounds to inhibit viral replication was assessed with an experiment in which infected cells were treated by compounds of formula (Ie) at 1 μM. As a positive control for inhibition of Chikungunya, Ribavirin was used. Toxicity of the compounds was assessed in parallel.
Human embryonic kidney cells 293T (HEK293T, CRL-11268) were maintained in Dulbecco's modified Eagle's Medium (DMEM, 31966-021, Thermo Fisher Scientific) supplemented with 10% of fetal bovine serum (FBS), penicillin and streptomycin. After removal of the medium, cells were washed with Ca^2+ and Mg^2+-free salt solution to remove all traces of serum. After aspiration of wash solution, cells were dissociated with 0.25% Trypsin-EDTA solution and incubated 30 s at least in 37° C. incubator. Concentration of cell suspension was determined by an automatic cell counter (EVE, NanoEntek) and, if needed, adjusted to 0.33×10^6 cells/mL with DMEM medium supplemented with 10% FBS.
100 μL of the cell suspension were dispatched in a ViewPlate-96 Black (6005182, PerkinElmer) and in a transparent 96-well cell culture plate (655180, Greiner bio-one). After an incubation for 24 h at 37° C. under 5% of CO2, compounds were added at the proper concentration.
An intermediate dilution was prepared with DMSO (D8418, Sigma) at 2 mM in a 96-well V-bottom microplate from the stock solution:
Mix 1 μL of the 50 mM stock library in 25 μL of DMSO.
Mix 2 μL of the 25 mM stock library in 25 μL of DMSO.
An intermediate dilution was prepared with DMSO (D8418, Sigma) at 25 mM in a 96-well V-bottom microplate from the stock solution:
Mix 2 μL of the 50 mM stock library in 2 μL of DMSO.
Perform serial dilution in 2 μL of DMSO 13 times to reach 0.0015 mM. Proceed as follows in table III:
For both screen and determination of IC50, 1 μL of each solution was added in a 1 mL Masterblock 96 wells (Greiner bio-one, 780261) containing 1 mL of DMEM medium. As a positive control, 5 μL of a 80 mM Ribavirin solution (R9644, Sigma) is added to 1 mL of DMEM. On the other hand, DMSO is used as a negative control.
[…]. Vector Borne Zoonotic Dis. 2006; 6(4)). This modified virus was used to infect cells at MOI 0.1. […].
Medium was removed after 22 h at 37° C. under 5% of CO2 and cells were washed as described above. 60 μL of RIPA buffer (50 mM Tris-HCl pH8, 100 mM NaCl, 1 mM MgCl2, 1% Triton X-100) was added to cells and incubated for at least 20 min before reading fluorescence signal. Pierce 660 nm Protein Assay Reagent (22660, Thermo scientific) was used to normalize fluorescence signal by protein quantity.
• A first round of experiments has been performed wherein the results are expressed as inhibition percentage, which is calculated as follows, through the following steps: • 1. Fluorescence intensity (FI)/Absorbance 660 nm (A660)=A
This ratio allows considering the infection (GFP virus) to the protein amount. • 2. A′=A−background noise of non-infected plate, • 3. B=Fluorescence intensity (FI)/Absorbance 660 nm (A660) of infected but non treated plates, • 4. C=A′/B, which is then converted as the percentage of infection after treatment, compared to non-treated sample, and subsequently as the infection percentage. For instance, a value of 100 in Table IV here below means that, after treatment, the signal attributed to GFP fluorescence is abolished, which is correlated to the absence of infection. • 5. C′=100−C
This value corresponds to the inhibition's percentage.
The following Table IV encompasses said C′ value for some compounds, as calculated above with a mean of 2 experiments, and corresponding standard deviation.
Some values were originally above 100. In these cases, the value has been lowered to 100. This means that some molecules also have an impact on the viability of the cells. In other words, the A value may be lower than the background noise.
Moreover, for each measure, the test was performed with Ribavirin as control. The value of the inhibition percentage was checked, giving 100%.

Row | SMILES | inhibition at 1 µM | IC50
1 | Cc1cc(OCc2ccccn2)ccc1Nc1cccc(C(=O)NCCC2CCC2)c1 [Compound 46, N-(2-cyclobutylethyl)-3-((2-methyl-4-(pyridin-2-ylmethoxy)phenyl)amino)benzamide] | 99% | 
2 | O=C(NCCC1CCCCC1)c1cccc(Nc2ccc(OCc3ccccn3)cc2)c1 [Compound 38, N-(2-cyclohexylethyl)-3-((4-(pyridin-2-ylmethoxy)phenyl)amino)benzamide] | 99% | 
3 | CCCC(C)NC(=O)c1cccc(Nc2ccc(OCc3ccccn3)cc2)c1 (centres unmarked) [Compound 64, N-(pentan-2-yl)-3-((4-(pyridin-2-ylmethoxy)phenyl)amino)benzamide] |  | 1 to 400 nM
4 | Cc1cc(OCc2ccccn2)ccc1Nc1cccc(NC(=O)NCCC(C)C)c1 [Compound 68, 1-isopentyl-3-(3-((2-methyl-4-(pyridin-2-ylmethoxy)phenyl)amino)phenyl)urea] |  | 1 to 400 nM
5 | Cc1cc(OCc2ccccn2)ccc1Nc1cccc(C(=O)NCCC2CC2)c1 [Compound 45, N-(2-cyclopropylethyl)-3-((2-methyl-4-(pyridin-2-ylmethoxy)phenyl)amino)benzamide] | 99% | 
